According to EP4796538A1, “NOVEL QUINOXALINE COMPOUNDS, MANUFACTURING METHOD THEREOF, AND USES THEREOF” (Gachon University of Industry-Academic Cooperation …, priority 2023, dated 2025):
Where two headings read alike, the source gives them in different places.

Key:
[1] = target: T1, RET (G810S/M918T) (Homo sapiens, UniProt P07949, G810S/M918T); test: Kinase panel inhibition, radiolabeled [γ-33P] ATP (Reaction Biology Corp); format: biochemical; settings: ATP 1 µM; for remaining activity at 10 µM: compound at 10 uM; for remaining activity at 30 µM: compound at 30uM
T1 construct: purchased Reaction Biology Corp

[2] = target: T2, RET-CCDC6 (PTC1) (Homo sapiens, UniProt P07949); test: as above; format: biochemical; settings: ATP 1 µM; for remaining activity at 10 µM: compound at 10 uM; for remaining activity at 30 µM: compound at 30uM
T2 construct: purchased Reaction Biology Corp

[3] = system: A-549; test: Cell proliferation inhibition, Cell Counting Kit-8, non-small cell lung cancer cell line; format: cell-based; settings: A-549 cell line; 72 hours incubation; test concentration not given
[4] = Data 1, read-out: % Enzyme Activity (relative to DMSO controls) RET (G810S/M918T) Data 1
[5] = Data 2, read-out: % Enzyme Activity (relative to DMSO controls) RET (G810S/M918T) Data 2
[6] = Data 1, read-out: % Enzyme Activity (relative to DMSO controls) RET-CCDC6 (PTC1) Data 1
[7] = Data 2, read-out: % Enzyme Activity (relative to DMSO controls) RET-CCDC6 (PTC1) Data 2

T1 sequence (P07949 29-1114 G810S/M918T): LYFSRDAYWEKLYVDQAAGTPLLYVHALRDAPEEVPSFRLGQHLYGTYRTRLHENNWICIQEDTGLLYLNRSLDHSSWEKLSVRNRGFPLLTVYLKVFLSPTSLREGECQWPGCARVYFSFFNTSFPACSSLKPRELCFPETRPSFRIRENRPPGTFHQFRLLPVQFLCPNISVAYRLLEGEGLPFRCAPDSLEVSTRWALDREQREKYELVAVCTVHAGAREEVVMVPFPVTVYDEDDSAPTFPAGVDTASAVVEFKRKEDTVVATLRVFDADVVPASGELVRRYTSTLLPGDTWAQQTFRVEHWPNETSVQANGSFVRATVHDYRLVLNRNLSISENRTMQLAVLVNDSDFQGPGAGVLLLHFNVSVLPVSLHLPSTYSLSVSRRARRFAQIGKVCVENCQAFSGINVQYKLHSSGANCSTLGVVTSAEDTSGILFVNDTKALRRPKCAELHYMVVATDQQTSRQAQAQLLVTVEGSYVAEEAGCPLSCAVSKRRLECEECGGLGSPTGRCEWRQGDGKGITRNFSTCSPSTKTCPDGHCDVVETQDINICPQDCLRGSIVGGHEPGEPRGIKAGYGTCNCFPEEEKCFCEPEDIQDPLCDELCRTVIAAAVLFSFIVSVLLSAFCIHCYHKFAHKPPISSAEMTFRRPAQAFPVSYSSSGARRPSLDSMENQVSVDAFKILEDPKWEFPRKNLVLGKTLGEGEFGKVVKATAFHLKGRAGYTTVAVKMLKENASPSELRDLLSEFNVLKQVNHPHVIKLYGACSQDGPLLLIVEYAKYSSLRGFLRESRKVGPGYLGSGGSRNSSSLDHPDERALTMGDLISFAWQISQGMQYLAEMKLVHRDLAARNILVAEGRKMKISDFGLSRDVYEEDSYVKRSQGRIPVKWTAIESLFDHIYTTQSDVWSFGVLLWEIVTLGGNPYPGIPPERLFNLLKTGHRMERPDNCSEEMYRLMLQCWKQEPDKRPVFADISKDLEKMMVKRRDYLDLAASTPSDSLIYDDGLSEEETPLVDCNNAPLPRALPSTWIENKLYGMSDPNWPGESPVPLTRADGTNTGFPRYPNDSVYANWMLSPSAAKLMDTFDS
T2 sequence (P07949 whole entry, looked up): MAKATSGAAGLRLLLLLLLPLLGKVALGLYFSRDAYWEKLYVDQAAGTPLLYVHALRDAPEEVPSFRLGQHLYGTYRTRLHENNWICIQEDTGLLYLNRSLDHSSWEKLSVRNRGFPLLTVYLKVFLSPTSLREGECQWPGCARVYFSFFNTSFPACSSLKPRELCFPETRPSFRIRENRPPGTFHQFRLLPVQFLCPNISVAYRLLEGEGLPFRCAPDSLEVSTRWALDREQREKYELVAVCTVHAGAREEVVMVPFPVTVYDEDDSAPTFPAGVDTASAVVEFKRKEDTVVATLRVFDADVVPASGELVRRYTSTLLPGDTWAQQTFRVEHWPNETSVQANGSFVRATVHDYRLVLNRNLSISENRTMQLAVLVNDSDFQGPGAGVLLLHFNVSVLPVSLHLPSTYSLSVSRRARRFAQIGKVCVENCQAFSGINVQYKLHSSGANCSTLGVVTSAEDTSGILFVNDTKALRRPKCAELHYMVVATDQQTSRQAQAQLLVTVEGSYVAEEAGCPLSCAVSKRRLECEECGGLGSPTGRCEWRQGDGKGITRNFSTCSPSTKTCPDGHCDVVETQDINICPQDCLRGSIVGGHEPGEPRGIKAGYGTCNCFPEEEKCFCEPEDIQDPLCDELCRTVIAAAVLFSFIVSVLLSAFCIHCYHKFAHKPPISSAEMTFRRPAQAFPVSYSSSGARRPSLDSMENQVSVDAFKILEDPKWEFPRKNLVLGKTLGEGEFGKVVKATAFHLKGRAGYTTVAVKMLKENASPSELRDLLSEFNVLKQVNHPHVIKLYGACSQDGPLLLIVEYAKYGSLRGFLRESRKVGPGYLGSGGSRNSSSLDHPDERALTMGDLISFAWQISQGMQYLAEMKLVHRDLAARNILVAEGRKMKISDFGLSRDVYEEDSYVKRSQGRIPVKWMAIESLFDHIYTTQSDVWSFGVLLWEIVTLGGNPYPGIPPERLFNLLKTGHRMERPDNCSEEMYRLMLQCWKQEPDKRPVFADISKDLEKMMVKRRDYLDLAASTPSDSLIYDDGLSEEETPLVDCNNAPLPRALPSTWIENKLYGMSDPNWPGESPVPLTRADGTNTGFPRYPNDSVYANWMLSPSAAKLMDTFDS

Row | SMILES | remaining activity at 10 µM [1, 4] [%] | remaining activity at 10 µM [1, 5] [%] | remaining activity at 10 µM [2, 6] [%] | remaining activity at 10 µM [2, 7] [%] | remaining activity at 30 µM [1, 4] [%] | remaining activity at 30 µM [1, 5] [%] | remaining activity at 30 µM [2, 6] [%] | remaining activity at 30 µM [2, 7] [%] | Cell Proliferation (% of control) [3] [%]
1 | CCCNc1cc(-c2ccc(N3CC(Oc4cccc(F)c4)C3)nc2)c2nccnc2c1 [Example 4, 8-(6-(3-(3-fluorophenoxy)azetidin-1-yl)pyridin-3-yl)-N-propylquinoxalin-6-amine] | -0.23 | 0.04 | 1.11 | 1.31 |  |  |  |  | 43.59
2 | CC(C)Nc1cc(-c2ccc(N3CC(Oc4cccc(F)c4)C3)nc2)c2nccnc2c1 [Example 5, 8-(6-(3-(3-fluorophenoxy)azetidin-1-yl)pyridin-3-yl)-N-isopropylquinoxalin-6-amine] | 5.96 | 6.14 | 1.34 | 0.72 |  |  |  |  | 36.07
3 | CCCCNc1cc(-c2ccc(N3CC(Oc4cccc(F)c4)C3)nc2)c2nccnc2c1 [Example 6, N-butyl-8-(6-(3-(3-fluorophenoxy)azetidin-1-yl)pyridin-3-yl)quinoxalin-6-amine] | 2.18 | 2.37 | 1.05 | 1.32 |  |  |  |  | 68.59
4 | CC(C)CNc1cc(-c2ccc(N3CC(Oc4cccc(F)c4)C3)nc2)c2nccnc2c1 [Example 7, 8-(6-(3-(3-fluorophenoxy)azetidin-1-yl)pyridin-3-yl)-N-isobutylquinoxalin-6-amine] | 4.28 | 4.26 | 0.85 | 1.07 |  |  |  |  | 53.57
5 | O=C(Nc1cc(-c2ccc(N3CC(Oc4cccc(F)c4)C3)nc2)c2nccnc2c1)c1ccccn1 [Example 9, N-(8-(6-(3-(3-fluorophenoxy)azetidin-1-yl)pyridin-3-yl)quinoxalin-6-yl)picolinamide] | 49.5 | 50 | 2.81 | 3.74 |  |  |  |  | 18.67
6 | CCCNc1cc(-c2ccc(N3CC[C@H](NC(=O)c4ccccc4F)C3)nc2)c2nccnc2c1 [Example 13, (S)-2-fluoro-N-(1-(5-(7-(propylamino)quinoxalin-5-yl)pyridin-2-yl)pyrrolidin-3-yl)benzamide] | -0.06 | -0.31 | 0.91 | 1.28 |  |  |  |  | 39.32
7 | CC(C)Nc1cc(-c2ccc(N3CC[C@H](NC(=O)c4ccccc4F)C3)nc2)c2nccnc2c1 [Example 14, (S)-2-fluoro-N-(1-(5-(7-(isopropylamino)quinoxalin-5-yl)pyridin-2-yl)pyrrolidin-3-yl)benzamide] | 5.08 | 4.68 | 1.04 | 0.72 |  |  |  |  | 47.83
8 | CCCCNc1cc(-c2ccc(N3CC[C@H](NC(=O)c4ccccc4F)C3)nc2)c2nccnc2c1 [Example 15, (S)-N-(1-(5-(7-(butylamino)quinoxalin-5-yl)pyridin-2-yl)pyrrolidin-3-yl)-2-fluorobenzamide] | -0.06 | -0.2 | 1.08 | 1.1 |  |  |  |  | 51.55
9 | CC(C)CNc1cc(-c2ccc(N3CC[C@H](NC(=O)c4ccccc4F)C3)nc2)c2nccnc2c1 [Example 16, (S)-2-fluoro-N-(1-(5-(7-(isobutylamino)quinoxalin-5-yl)pyridin-2-yl)pyrrolidin-3-yl)benzamide] | 3.39 | 3.22 | 1.21 | 1.51 |  |  |  |  | 65.29
10 | O=C(Nc1cc(-c2ccc(N3CC[C@H](NC(=O)c4ccccc4F)C3)nc2)c2nccnc2c1)c1ccco1 [Example 17, (S)-N-(8-(6-(3-(2-fluorobenzamido)pyrrolidin-1-yl)pyridin-3-yl)quinoxalin-6-yl)furan-2-carboxamide] | 11.9 | 11.9 | 1.15 | 1.33 |  |  |  |  | 48.96
11 | O=C(Nc1cc(-c2ccc(N3CC[C@H](NC(=O)c4ccccc4F)C3)nc2)c2nccnc2c1)c1ccccn1 [Example 18, (S)-N-(8-(6-(3-(2-fluorobenzamido)pyrrolidin-1-yl)pyridin-3-yl)quinoxalin-6-yl)picolinamide] | 24.7 | 25.5 | 1.9 | 2.31 |  |  |  |  | 35.32
12 | Nc1cc(-c2ccc(N3CCOCC3)nc2)c2nccnc2c1 [Example 19, 8-(6-morpholinopyridin-3-yl)quinoxalin-6-amine] | 27.3 | 26.3 | 5.69 | 6.45 |  |  |  |  | 71.46
13 | CN1CCN(c2ccc(-c3cc(N)cc4nccnc34)cn2)CC1 [Example 20, 8-(6-(4-methylpiperazin-1-yl)pyridin-3-yl)quinoxalin-6-amine] | 48.1 | 45 | 12.9 | 15.3 |  |  |  |  | 81.61
14 | CCN1CCN(c2ccc(-c3cc(N)cc4nccnc34)cn2)CC1 [Example 21, 8-(6-(4-ethylpiperazin-1-yl)pyridin-3-yl)quinoxalin-6-amine] | 66.7 | 63.3 | 26 | 28 |  |  |  |  | 64.90
15 | Nc1cc(-c2ccc(F)nc2)c2nccnc2c1 [Intermediate Compound 4, 8-(6-fluoropyridin-3-yl)quinoxalin-6-amine] |  |  |  |  | 53.5 | 54.1 | 20.9 | 19.4 | 
16 | CNc1cc(-c2ccc(F)nc2)c2nccnc2c1 [Intermediate Compound 5, 8-(6-fluoropyridin-3-yl)-N-methylquinoxalin-6-amine] |  |  |  |  | 13.3 | 14.4 | 5.67 | 3.67 | 
17 | CCCNc1cc(-c2ccc(F)nc2)c2nccnc2c1 [Intermediate Compound 7] |  |  |  |  | 24 | 22.3 |  |  | 
18 | CC(C)Nc1cc(-c2ccc(F)nc2)c2nccnc2c1 [Intermediate Compound 8, 8-(6-fluoropyridin-3-yl)-N-isopropylquin oxalin-6-amine] |  |  |  |  | 66.5 | 68.4 | 7.38 | 7.71 | 
19 | CCCCNc1cc(-c2ccc(F)nc2)c2nccnc2c1 [Intermediate Compound 9, N-butyl-8-(6-fluoropyridin-3-yl)quinoxalin-6-amine] |  |  |  |  | 24.8 | 25.3 |  |  | 

Continued, in another order:

Row | remaining activity at 10 µM [1, 4] [%] | remaining activity at 10 µM [1, 5] [%] | remaining activity at 10 µM [2, 6] [%] | remaining activity at 10 µM [2, 7] [%] | remaining activity at 30 µM [1, 4] [%] | remaining activity at 30 µM [1, 5] [%] | remaining activity at 30 µM [2, 6] [%] | remaining activity at 30 µM [2, 7] [%] | SMILES | Cell Proliferation (% of control) [3] [%]
20 |  |  |  |  | 43.1 | 40.1 |  |  | CC(C)CNc1cc(-c2ccc(F)nc2)c2nccnc2c1 [Intermediate Compound 10, 8-(6-Fluoropyridin-3-yl)-N-isobutylquinoxalin-6-amine] | 
21 |  |  |  |  | 100 | 96.4 |  |  | O=C(Nc1cc(Br)c2nccnc2c1)c1ccccn1 [Intermediate Compound 12, N-(8-Bromoquinoxalin-6-yl)picolinamide] | 
22 |  |  |  |  | 92.5 | 92.5 |  |  | O=C(Nc1cc(-c2ccc(F)nc2)c2nccnc2c1)c1ccccn1 [Intermediate Compound 14, N-(8-(6-Fluoropyridin-3-yl)quinoxalin-6-yl)picolinamide] | 
23 |  |  |  |  | 40.8 | 39.1 | 13.2 | 13.3 | Nc1cc(-c2cnc(Cl)nc2)c2nccnc2c1 [Intermediate Compound 16, 8-(2-chloropyrimidin-5-yl)quinoxalin-6-amine] | 
24 |  |  |  |  | 27.6 | 28.3 |  |  | CCCNc1cc(Br)c2nccnc2c1 [Intermediate Compound 19, 8-Bromo-N-propylquinoxalin-6-amine] | 
25 |  |  |  |  | 69.1 | 73.1 | 7.86 | 7.51 | CC(C)Nc1cc(Br)c2nccnc2c1 [Intermediate Compound 20, 8-Bromo-N-isopropylquin oxalin-6-amine] | 
26 |  |  |  |  | 20.8 | 21.7 |  |  | CCCCNc1cc(Br)c2nccnc2c1 [Intermediate Compound 21, 8-Bromo-N-butylquinoxalin-6-amine] | 
27 |  |  |  |  | 49.4 | 48.9 |  |  | CC(C)CNc1cc(Br)c2nccnc2c1 [Intermediate Compound 22, 8-Bromo-N-isobutylquino xalin-6-amine] | 
